In patent US7279444B2, “Substituted benzoylpyrazoles” (Bayer CropScience GmbH, priority 1999, dated 2007):
Marks after values point to notes of the source that are not given here.

Experiment: log P by HPLC on reversed-phase column (C 18), acidic range
Assay type: physicochemical
Description: Temperature: 43° C. […] The log P values given in Table 3 were determined in accordance with EEC Directive 79/831 Annex V.A8 by HPLC (High Performance Liquid Chromatography) on a reversed-phase column (C 18). Temperature: 43° C. […] The log P values given in Tables 4 were determined in accordance with EEC Directive 79/831 Annex V.A8 by HPLC (High Performance Liquid Chromatography) on a reversed-phase column (C 18). Temperature: 43° C.

logP | Compound
logP = 3.01^a) | Cc1nn(C(C)(C)C)c(O)c1C(=O)c1ccc(Cl)c(CN2CCCN(C)C2=O)c1Cl [ID-6]
logP = 2.98^a) | CCn1ncc(C(=O)c2ccc(C(F)(F)F)cc2Cn2nc(SC)sc2=O)c1O [ID-7]
logP = 2.75^a) | CCn1ncc(C(=O)c2ccc(C(F)(F)F)cc2Cn2cc(Cl)cc(Cl)c2=O)c1O [ID-8]
logP = 3.82^a) | CCOc1nn(Cc2cc(C(F)(F)F)ccc2C(=O)c2cnn(CC)c2OS(=O)(=O)c2ccc(C)cc2)c(=O)n1C [ID-9]
logP = 3.73^a) | CCn1ncc(C(=O)c2ccc(C(F)(F)F)cc2Cn2nc(SC)n(C)c2=O)c1OS(=O)(=O)c1ccc(C)cc1 [ID-10]
logP = 3.25^a) | CCOc1nn(Cc2cc(C(F)(F)F)ccc2C(=O)c2cnn(CC)c2OS(C)(=O)=O)c(=O)n1C [ID-11]
logP = 2.82^a) | CCn1ncc(C(=O)c2ccc(C(F)(F)F)cc2Cn2nc(SC)n(C)c2=O)c1OS(C)(=O)=O [ID-12]
logP = 2.74^a) | CCOc1nn(Cc2cc(C(F)(F)F)ccc2C(=O)c2cnn(CC)c2OC)c(=O)n1C [ID-13]
logP = 2.82^a) | CCOc1c(C(=O)c2ccc(C(F)(F)F)cc2Cn2nc(OCC)n(C)c2=O)cnn1CC [ID-14]
logP = 3.11^a) | CCOc1nn(Cc2cc(C(F)(F)F)ccc2C(=O)c2cnn(CC)c2OC(C)C)c(=O)n1C [ID-15]
logP = 2.99^a) | C=CCOc1c(C(=O)c2ccc(C(F)(F)F)cc2Cn2nc(OCC)n(C)c2=O)cnn1CC [ID-16]
logP = 3.45^a) | CCOc1nn(Cc2cc(C(F)(F)F)ccc2C(=O)c2cnn(CC)c2OCc2ccccc2)c(=O)n1C [ID-17]
logP = 3.79^a) | CCOc1nn(Cc2cc(C(F)(F)F)ccc2C(=O)c2cnn(CC)c2OCc2ccc(C)cc2)c(=O)n1C [ID-18]
logP = 3.97^a) | CCOc1nn(Cc2cc(C(F)(F)F)ccc2C(=O)c2cnn(CC)c2OCc2ccc(Br)cc2)c(=O)n1C [ID-19]
logP = 3.12^a) | CCOc1nn(Cc2cc(C(F)(F)F)ccc2C(=O)c2cnn(CC)c2OCc2ccc(C#N)cc2)c(=O)n1C [ID-20]
logP = 3.49^a) | CCOc1nn(Cc2cc(C(F)(F)F)ccc2C(=O)c2cnn(CC)c2OCc2ccc(F)cc2)c(=O)n1C [ID-21]
logP = 3.85^a) | CCOc1nn(Cc2cc(C(F)(F)F)ccc2C(=O)c2cnn(CC)c2OCc2ccc(Cl)cc2)c(=O)n1C [ID-22]
logP = 4.26^a) | CCOc1nn(Cc2cc(C(F)(F)F)ccc2C(=O)c2cnn(CC)c2OCc2ccc(Cl)c(Cl)c2)c(=O)n1C [ID-23]
logP = 3.84^a) | CCOc1nn(Cc2cc(C(F)(F)F)ccc2C(=O)c2cnn(CC)c2OCc2cccc(Cl)c2)c(=O)n1C [ID-24]
logP = 3.33^a) | CCOc1nn(Cc2cc(C(F)(F)F)ccc2C(=O)c2cnn(CC)c2OCc2ccc([N+](=O)[O-])cc2)c(=O)n1C [ID-25]
logP = 3.98^a) | CCOc1nn(Cc2cc(C(F)(F)F)ccc2C(=O)c2cnn(CC)c2OCc2ccc(C(F)(F)F)cc2)c(=O)n1C [ID-26]
logP = 3.94^a) | CCOc1nn(Cc2cc(C(F)(F)F)ccc2C(=O)c2cnn(CC)c2OCc2cccc(C(F)(F)F)c2)c(=O)n1C [ID-27]
logP = 2.65^a) | CCn1ncc(C(=O)c2ccc(C(F)(F)F)cc2Cn2nc(SC)n(C)c2=O)c1OC [ID-30]
logP = 2.71^a) | CCOc1c(C(=O)c2ccc(C(F)(F)F)cc2Cn2nc(SC)n(C)c2=O)cnn1CC [ID-31]
logP = 3.00^a) | CCn1ncc(C(=O)c2ccc(C(F)(F)F)cc2Cn2nc(SC)n(C)c2=O)c1OC(C)C [ID-32]
logP = 2.89^a) | C=CCOc1c(C(=O)c2ccc(C(F)(F)F)cc2Cn2nc(SC)n(C)c2=O)cnn1CC [ID-33]

logP | Compound
logP = 3.37^a) | CCn1ncc(C(=O)c2ccc(C(F)(F)F)cc2Cn2nc(SC)n(C)c2=O)c1OCc1ccccc1 [ID-34]
logP = 3.71^a) | CCn1ncc(C(=O)c2ccc(C(F)(F)F)cc2Cn2nc(SC)n(C)c2=O)c1OCc1ccc(C)cc1 [ID-35]
logP = 3.89^a) | CCn1ncc(C(=O)c2ccc(C(F)(F)F)cc2Cn2nc(SC)n(C)c2=O)c1OCc1ccc(Br)cc1 [ID-36]
logP =3.06^a) | CCn1ncc(C(=O)c2ccc(C(F)(F)F)cc2Cn2nc(SC)n(C)c2=O)c1OCc1ccc(C#N)cc1 [ID-37]
logP = 3.41^a) | CCn1ncc(C(=O)c2ccc(C(F)(F)F)cc2Cn2nc(SC)n(C)c2=O)c1OCc1ccc(F)cc1 [ID-38]
logP = 3.78^a) | CCn1ncc(C(=O)c2ccc(C(F)(F)F)cc2Cn2nc(SC)n(C)c2=O)c1OCc1ccc(Cl)cc1 [ID-39]
logP = 4.17^a) | CCn1ncc(C(=O)c2ccc(C(F)(F)F)cc2Cn2nc(SC)n(C)c2=O)c1OCc1ccc(Cl)c(Cl)c1 [ID-40]
logP = 3.76^a) | CCn1ncc(C(=O)c2ccc(C(F)(F)F)cc2Cn2nc(SC)n(C)c2=O)c1OCc1cccc(Cl)c1 [ID-41]
logP = 3.26^a) | CCn1ncc(C(=O)c2ccc(C(F)(F)F)cc2Cn2nc(SC)n(C)c2=O)c1OCc1ccc([N+](=O)[O-])cc1 [ID-42]
logP = 3.89^a) | CCn1ncc(C(=O)c2ccc(C(F)(F)F)cc2Cn2nc(SC)n(C)c2=O)c1OCc1ccc(C(F)(F)F)cc1 [ID-43]
logP = 3.85^a) | CCn1ncc(C(=O)c2ccc(C(F)(F)F)cc2Cn2nc(SC)n(C)c2=O)c1OCc1cccc(C(F)(F)F)c1 [ID-44]
logP = 3.19^a) | CCn1ncc(C(=O)c2ccc(C(F)(F)F)cc2Cn2nc(SC)n(C)c2=O)c1OCC(=O)c1ccccc1 [ID-45]
logP = 3.47^a) | CCn1ncc(C(=O)c2ccc(C(F)(F)F)cc2Cn2nc(SC)n(C)c2=O)c1OCC(=O)c1ccc(C)cc1 [ID-46]
logP = 3.64^a) | CCn1ncc(C(=O)c2ccc(C(F)(F)F)cc2Cn2nc(SC)n(C)c2=O)c1OCC(=O)c1ccc(Cl)cc1 [ID-47]
logP = 1.41^a) | CN1CCN(Cc2c(Cl)ccc(C(=O)c3cnn(C)c3O)c2Cl)C1=O [ID-50]
logP = 1.38^a) | Cc1nn(C)c(O)c1C(=O)c1ccc(Cl)c(CN2CCN(C)C2=O)c1Cl [ID-51]
logP = 1.56^a) | CCn1nc(C)c(C(=O)c2ccc(Cl)c(CN3CCN(C)C3=O)c2Cl)c1O [ID-52]
logP = 2.79^a) | Cc1nn(C(C)(C)C)c(O)c1C(=O)c1ccc(Cl)c(CN2CCN(C)C2=O)c1Cl [ID-53]
logP = 1.62^a) | CCN1CCN(Cc2c(Cl)ccc(C(=O)c3cnn(C)c3O)c2Cl)C1=O [ID-54]
logP = 1.57^a) | CCN1CCN(Cc2c(Cl)ccc(C(=O)c3c(C)nn(C)c3O)c2Cl)C1=O [ID-55]
logP = 1.88^a) | CCN1CCN(Cc2c(Cl)ccc(C(=O)c3cnn(CC)c3O)c2Cl)C1=O [ID-56]
logP = 1.79^a) | CCN1CCN(Cc2c(Cl)ccc(C(=O)c3c(C)nn(CC)c3O)c2Cl)C1=O [ID-57]
logP = 3.15^a) | CCN1CCN(Cc2c(Cl)ccc(C(=O)c3c(C)nn(C(C)(C)C)c3O)c2Cl)C1=O [ID-58]
logP = 2.27^a) | COC(=O)c1ccc(Cl)c(Cn2nc(SC)n(C)c2=O)c1Cl [IV-3]
logP = 2.38^a) | CCOc1nn(Cc2c(Cl)ccc(C(=O)OC)c2Cl)c(=O)n1C [IV-4]
logP = 2.55^a) | COC(=O)c1ccc(Cl)c(Cn2nc(C3CC3)n(C3CC3)c2=O)c1Cl [IV-5]

logP | Compound
logP = 2.04^a) | COC(=O)c1ccc(Cl)c(Cn2nc(OC)n(C)c2=O)c1Cl [IV-6]
logP = 2.73^a) | COC(=O)c1ccc(Cl)c(Cn2nc(OC(C)C)n(C)c2=O)c1Cl [IV-7]
logP = 2.72^a) | COC(=O)c1ccc(Cl)c(Cn2nc(OCC(F)(F)F)n(C)c2=O)c1Cl [IV-8]
logP = 2.18^a) | COC(=O)c1ccc(Cl)c(Cn2nc(Br)n(C)c2=O)c1Cl [IV-9]
logP = 1.55^a) | COC(=O)c1ccc(Cl)c(Cn2ncn(C)c2=O)c1Cl [IV-10]
logP = 2.16^a) | COC(=O)c1ccc(Cl)c(Cn2nc(C3CC3)n(C)c2=O)c1Cl [IV-11]
logP = 2.11^a) | COC(=O)c1ccc(Cl)c(Cn2nc(N(C)C)n(C)c2=O)c1Cl [IV-12]
logP = 1.65^a) | COC(=O)c1ccc(Cl)c(Cn2nc(C)n(C)c2=O)c1Cl [IV-13]
logP = 1.86^a) | COC(=O)c1ccc(Cl)c(Cn2nc3n(c2=O)CCCC3)c1Cl [IV-14]
logP = 2.36^a) | COC(=O)c1ccc(Cl)c(Cn2nc(OC)n(C3CC3)c2=O)c1Cl [IV-15]
logP = 2.73^a) | CCOc1nn(Cc2c(Cl)ccc(C(=O)OC)c2Cl)c(=O)n1C1CC1 [IV-16]
logP = 3.08^a) | COC(=O)c1ccc(Cl)c(Cn2nc(OC(C)C)n(C3CC3)c2=O)c1Cl [IV-17]
logP = 3.05^a) | COC(=O)c1ccc(Cl)c(Cn2nc(OCC(F)(F)F)n(C3CC3)c2=O)c1Cl [IV-18]
logP = 2.70^a) | COC(=O)c1ccc(Cl)c(Cn2nc(SC)n(C3CC3)c2=O)c1Cl [IV-19]
logP = 1.97^a) | COC(=O)c1ccc(Cl)c(Cn2nc(C)n(C3CC3)c2=O)c1Cl [IV-20]
logP = 2.42^a) | COC(=O)c1ccc(Cl)c(Cn2nc(N(C)C)n(C3CC3)c2=O)c1Cl [IV-21]
logP = 2.58^a) | CCOn1c(CC)nn(Cc2c(Cl)ccc(C(=O)OC)c2Cl)c1=O [IV-22]
logP = 1.98^a) | COC(=O)c1ccc(Cl)c(CN2CCN(C)C2=O)c1Cl [IV-23]
logP = 2.07^a) | COC(=O)c1ccc(Cl)c(CN2CCCN(C)C2=O)c1Cl [IV-24]
logP = 2.94^a) | COC(=O)c1ccc(Cl)c(CN2C(=O)c3ccccc3S2(=O)=O)c1Cl [IV-25]
logP = 1.53^a) | CCOC(=O)c1ccc(S(C)(=O)=O)cc1CN1C(=O)CCC1=O [IV-33]
logP = 3.24^a) | CCOC(=O)c1ccc(Br)cc1Cn1nc(CC)n(OCC)c1=O [IV-34]
logP = 3.40^a) | CCOC(=O)c1ccc(Br)cc1Cn1nc(C(F)(F)F)n(C)c1=O [IV-35]
logP = 2.41^a) | CCOC(=O)c1ccc(F)c(Cn2nc(Br)n(C)c2=O)c1 [IV-36]
logP = 2.45^a) | CCOC(=O)c1ccc(F)cc1Cn1nc(SC)n(C)c1=O [IV-37]
